We go through 30 compounds from patent US11161819B2, “Substituted tetrahydroisoquinoline compounds useful as GPR120 agonists” (Merck Sharp & Dohme Corp., priority 2016, dated 2021).

The structures appear in SMILES notation.

The target in this experiment is T1, human GPR120 (Homo sapiens, UniProt Q5NUL3).
T1 construct: expressed in transfected cells
T1 sequence (Q5NUL3 1-361): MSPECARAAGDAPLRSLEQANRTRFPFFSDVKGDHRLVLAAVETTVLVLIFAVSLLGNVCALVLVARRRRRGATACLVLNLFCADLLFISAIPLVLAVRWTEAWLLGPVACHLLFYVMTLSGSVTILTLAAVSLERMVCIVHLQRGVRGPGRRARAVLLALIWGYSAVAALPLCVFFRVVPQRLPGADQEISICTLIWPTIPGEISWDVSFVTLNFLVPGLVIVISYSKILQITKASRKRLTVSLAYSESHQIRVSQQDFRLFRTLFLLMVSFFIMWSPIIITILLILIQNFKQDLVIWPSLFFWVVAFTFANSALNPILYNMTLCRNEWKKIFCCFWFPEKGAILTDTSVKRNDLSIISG
In words: Human GPR120 IP1 Assay (inositol phosphate turnover, CisBio IP-One kit). The conditions noted are these: IP1 accumulation in CHO-K1 cells stably expressing the short form of human GPR120; 60 min compound incubation; 4-parameter fit; read-out: hGPR120 EC50. It counts as cell-based. Put shortly:
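CHO-K1 cells stably expressing short-form human GPR120 were stimulated with compounds for 60 minutes at 37 degrees in stimulation buffer. IP1 accumulation measured by HTRF competitive immunoassay (665/620 nm ratio) against an IP1 standard curve, normalized to a reference compound; EC50 from 4-parameter fit.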
Consider `N#Cc1c(F)cc(OC(F)(F)F)cc1N1CCc2c(ccc([C@H]3C[C@@H]3C(=O)O)c2F)C1` [Example 119, (1S,2S)-2-{2-[2-cyano-3-fluoro-5-(trifluoromethoxy)phenyl]-5-fluoro-1,2,3,4-tetrahydroisoquinolin-6-yl}cyclopropane-carboxylic acid], for which the EC50 (as a rule, the concentration at which the effect is half-maximal) was 0.273 µM.
`COc1ccc(-n2nc(C)c(C#N)c2N2CCc3ccccc3C2)cc1` [Example 141, 5-(3,4-dihydroisoquinolin-2(1H)-yl)-1-(4-methoxyphenyl)-3-methyl-1H-pyrazole-4-carbonitrile]: the EC50 amounted to 0.288 µM.
Then `COc1cc(F)c(N2CCc3cc(CCC(=O)O)ccc3C2)cc1OC1CCC1` [Example 31, 3-{2-[5-(cyclobutyloxy)-2-fluoro-4-methoxyphenyl]-1,2,3,4-tetrahydroisoquinolin-6-yl}-propanoic acid], with 0.182 µM; and `N#Cc1cc(OC(F)(F)F)cc(N2CCc3c(ccc([C@H]4C[C@@H]4C(=O)O)c3F)C2)c1F` [Example 116, (1S,2S)-2-{2-[3-cyano-2-fluoro-5-(trifluoromethoxy)phenyl]-5-fluoro-1,2,3,4-tetrahydroiso-quinolin-6-yl}cyclopropane-carboxylic acid], with 0.107 µM; and `CC(Cc1ccc2c(c1F)CCN(c1cc(OC3CCC3)cc(F)c1C#N)C2)C(=O)O` (stereo not drawn) [Example 79, 3-(2-(2-cyano-5-cyclobutyloxy-3-fluorophenyl)-5-fluoro-1,2,3,4-tetra hydroisoquinolin-6-yl)-2-methyl-propanoic acid], with 0.471 µM.
As to `CO[C@H]1C[C@H](Oc2cc(F)c(F)c(N3CCc4c(ccc(CCC(=O)O)c4F)C3)c2)C1` [Example 66, 3-(2-{2,3-difluoro-5-[(trans-3-methoxycyclobutyl)oxy]phenyl}-5-fluoro-1,2,3,4-tetrahydroisoquino-lin-6-yl)-propanoic acid], the concentration giving a half-maximal response (EC50) amounted to 0.041 µM.
Under `O=C(O)CCc1ccc2c(c1)CCN(c1cc(Oc3cnccn3)ccc1F)C2` [Example 33, 3-{2-[2-fluoro-5-(pyrazin-2-yloxy)phenyl]-1,2,3,4-tetrahydroiso-quinolin-6-yl}propanoic acid] stands 0.192 µM; under `O=C(O)CCc1cc2c(cc1F)CN(c1cc(OC(F)(F)F)ccc1F)CC2` [Example 30, 3-{7-fluoro-2-[2-fluoro-5-(trifluoromethoxy)phenyl]-1,2,3,4-tetrahydroisoquinolin-6-yl}-propanoic acid], 0.134 µM; under `COc1cc(OC2CCC2)cc(N2CCc3cc(CCC(=O)O)ccc3C2)c1F` [Example 18, 3-{2-[5-(cyclobutyloxy)-2-fluoro-3-methoxyphenyl]-1,2,3,4-tetra-hydroisoquinolin-6-yl}propanoic acid], 0.024 µM.
As to `Cc1ccc(-n2nc(C)c(C#N)c2N2CCc3cc(C(C)CCCC(=O)O)ccc3C2)cc1` (single isomer, unassigned) [Example 142, 5-{2-[4-cyano-3-methyl-1-(4-methylphenyl)-1H-pyrazol-5-yl]-1,2,3,4-tetra-hydroisoquinolin-6-yl}hexanoic acid], the half-maximal effective concentration (EC50) is 0.312 µM.
Under `O=C(O)[C@H]1C[C@@H]1c1ccc2c(c1F)CCN(c1cc(OC(F)(F)F)cc(F)c1Cl)C2` [Example 124, (1S,2S)-2-{2-[2-chloro-3-fluoro-5-(trifluoromethoxy)phenyl]-5-fluoro-1,2,3,4-tetrahydro-isoquinolin-6-yl}cyclopropane-carboxylic acid] stands 0.824 µM.
Under `O=C(O)C1CC1c1ccc2c(c1)CCN(c1cc(OC(F)(F)F)cc(Cl)c1F)C2` (stereo not drawn) [Example 105, 2-{2-[3-chloro-2-fluoro-5-(trifluoro-methoxy)phenyl]-1,2,3,4-tetra-hydroisoquinolin-6-yl}cyclo-propane-carboxylic acid] stands 6.61 µM; under `CO[C@H]1C[C@H](Oc2cc(F)c(F)c(N3CCc4cc([C@@H]5C[C@H]5C(=O)O)ccc4C3)c2)C1` [Example 99, (1R,2R)-2-(2-{2,3-difluoro-5-[(trans-3-methoxycyclobutyl)oxy]phenyl}-1,2,3,4-tetrahydro-isoquinolin-6-yl)-cyclopropanecarboxylic acid], 0.127 µM.
As to `Cc1nc(N2CCc3c(ccc(CCC(=O)O)c3F)C2)nc(OC2CCC2)c1C#N` [Example 151, 3-{2-[5-cyano-4-(cyclobutyloxy)-6-methylpyrimidin-2-yl]-5-fluoro-1,2,3,4-tetrahydroisoquino-lin-6-yl}propanoic acid], the EC50 was determined as 0.034 µM.
`O=C(O)CCc1ccc2c(c1)CCN(c1cc(OC3CCC3)cc(Cl)c1F)C2` [Example 54, 3-{2-[3-chloro-5-(cyclobutyloxy)-2-fluorophenyl]-1,2,3,4-tetrahydro-isoquinolin-6-yl}propanoic acid]: the EC50 stood at 1.68 µM.
Under `Cc1cnc(Oc2cc(C(F)F)c(F)c(N3CCc4cc(CCC(=O)O)ccc4C3)c2)s1` [Example 14, 3-(2-{3-(difluoromethyl)-2-fluoro-5-[(5-methyl-1,3-thiazol-2-yl)oxy]phenyl}-1,2,3,4-tetrahydro-isoquinolin-6-yl)propanoic acid] stands 0.02 µM; under `CO[C@H]1C[C@H](Oc2cc(C#N)c(F)c(N3CCc4cc([C@@H]5C[C@H]5C(=O)O)ccc4C3)c2)C1` [Example 89, (1R,2R)-2-(2-{3-cyano-2-fluoro-5-[(trans-3-methoxycyclobutyl)oxy]phenyl}-1,2,3,4-tetrahydro-isoquinolin-6-yl)cyclopropane-carboxylic acid], 0.185 µM; under `O=C(O)[C@@H]1C[C@H]1c1ccc2c(c1F)CCN(c1cc(OC3CCC3)cc(Cl)c1F)C2` [Example 123, (1R,2R)-2-{2-[3-chloro-5-(cyclobutyloxy)-2-fluorophenyl]-5-fluoro-1,2,3,4-tetrahydroisoquinolin-6-yl}cyclopropane-carboxylic acid], 0.766 µM.
As to `O=C(O)[C@H]1C[C@@H]1c1ccc2c(c1)CCN(c1cc(OC3CCC3)cc(Cl)c1F)C2` [Example 91, (1S,2S)-2-{2-[3-chloro-5-(cyclobutyloxy)-2-fluorophenyl]-1,2,3,4-tetrahydroisoquinolin-6-yl} cyclopropane carboxylic acid], the 50% effective concentration (EC50) stood at 0.059 µM.
Under `N#Cc1c(Cl)cc(OC2CCC2)cc1N1CCc2c(ccc(CCC(=O)O)c2F)C1` [Example 150, 3-{2-[3-chloro-2-cyano-5-(cyclobutyloxy)phenyl]-5-fluoro-1,2,3,4-tetrahydroisoquinolin-6-yl} propanoic acid] stands 0.016 µM; under `N#Cc1c(F)cc(OC2CCC2)cc1N1CCc2c(ccc(CCC(=O)O)c2F)C1` [Example 155, 3-{2-[2-cyano-5-(cyclobutyloxy)-3-fluorophenyl]-5-fluoro-1,2,3,4-tetrahydroisoquinolin-6-yl}-propanoic acid], 0.017 µM; under `COc1cc(OC2CCC2)nc(N2CCc3c(ccc(CCC(=O)O)c3F)C2)c1F` [Example 148, 3-(2-(6-cyclobutoxy-3-fluoro-4-methoxypyridin-2-yl)-5-fluoro-1,2,3,4-tetra-hydroisoquinolin-6-yl)propanoic acid], 0.009 µM.
With `Cc1ccc(-n2nc(C)c(Cl)c2N2CCc3c(ccc(CCC(=O)O)c3F)C2)cc1` [Example 146, 3-{2-[4-chloro-3-methyl-1-(4-methylphenyl)-1H-pyrazol-5-yl]-5-fluoro-1,2,3,4-tetrahydroisoquinolin-6-yl}propanoic acid], the EC50 is 0.309 µM.
As to `CC1c2ccc(CCC(=O)O)cc2CCN1c1cc(OC2CCC2)ccc1F` (stereo not drawn) [Example 39, 3-{2-[5-(cyclobutyloxy)-2-fluorophenyl]-1-methyl-1,2,3,4-tetra-hydroisoquinolin-6-yl}propanoic acid], the EC50 turned out to be 0.417 µM.
Under `O=C(O)CCc1ccc2c(c1)CCN(c1cc(OC(F)(F)F)cc(Cl)c1F)C2` [Example 15, 3-{2-[3-chloro-2-fluoro-5-(trifluoromethoxy)phenyl]-1,2,3,4-tetrahydroisoquinolin-6-yl}-propanoic acid] stands 0.022 µM; under `O=C(O)CCc1ccc2c(c1F)CCN(c1cc(C(F)(F)C3CCC3)ccc1F)C2` [Example 56, 3-(2-(5-(cyclobutyldifluoromethyl)-2-fluorophenyl)-5-fluoro-1,2,3,4-tetrahydro-isoquinolin-6-yl)propanoic acid], 0.04 µM; under `O=C(O)CCc1ccc2c(c1)CCN(c1cc(OC3CCC3)cc(F)c1F)C2` [Example 11, 3-{2-[5-(cyclobutyloxy)-2,3-difluorophenyl]-1,2,3,4-tetrahydro-isoquinolin-6-yl}propanoic acid], 0.015 µM.
Under `COc1ccc(-n2nc(C)c(C#N)c2N2CCc3cc(CCC(=O)O)ccc3C2)cc1` [Example 43, 3-{2-[4-cyano-1-(4-methoxy-phenyl)-3-methyl-1H-pyrazol-5-yl]-1,2,3,4-tetrahydroisoquinolin-6-yl}propanoic acid] stands 1.47 µM; under `CC1c2ccc(CCC(=O)O)cc2CCN1c1cc(OC2CCC2)ccc1F` (stereo not drawn) [Example 36, 3-{2-[5-(cyclobutyloxy)-2-fluorophenyl]-1-methyl-1,2,3,4-tetrahydroisoquinolin-6-yl}propanoic acid], 0.348 µM; under `COc1cc(F)c(N2CCc3cc(CCC(=O)O)ccc3C2)cc1Oc1ccc(C)cn1` [Example 28, 3-(2-{2-fluoro-4-methoxy-5-[(5-methylpyridin-2-yl)oxy]phenyl}-1,2,3,4-tetrahydroisoquinolin-6-yl)propanoic acid], 0.169 µM.
